Reference: ChEMBL document CHEMBL5620416, “Design, synthesis and development of a dual inhibitor of Topoisomerase 1 and poly (ADP-ribose) polymerase 1 for efficient killing of cancer cells” (Eur J Med Chem, 2023)
The source made the active and inactive calls. No cut-off for these calls is given here.

Columns and labels:
[1] = tested on: PANC-1; experiment: Cytotoxicity against human PANC-1 cells incubated for 72 hrs by MTT assay; type: functional, cell-based; conditions: PANC-1, 72 h
[2] = tested on: MIA PaCa-2; experiment: Cytotoxicity against human MIA PaCa-2 cells incubated for 72 hrs by MTT assay; type: functional, cell-based; conditions: MIA PaCa-2, 72 h
[3] = tested on: MIA PaCa-2; experiment: Cytotoxicity against human MIA PaCa-2 cells at greater than 10 uM incubated for 7 to 10 days by crystal violet staining based assay; type: functional, cell-based; conditions: time 7-10 day
[4] = tested on: PANC-1; experiment: Cytotoxicity against human PANC-1 cells at greater than 10 uM incubated for 7 to 10 days by crystal violet staining based assay; type: functional, cell-based; conditions: time 7-10 day
[5] = tested on: HCT-116; experiment: Cytotoxicity against human HCT-116 cells incubated for 72 hrs by MTT assay; type: functional, cell-based; conditions: HCT-116, 72 h
[6] = tested on: HCT-116; experiment: Cytotoxicity against human HCT-116 cells at greater than 10 uM incubated for 7 to 10 days by crystal violet staining based assay; type: functional, cell-based; conditions: time 7-10 day
[7] = tested on: DNA topoisomerase 1/Deoxyribonucleic acid (Homo sapiens); experiment: Induction of TOP1-DNA covalent complex stabilization in human HCT-116 cells at 10 to 20 uM after 2 hrs by RADAR assay; type: cell-based; conditions: dose 10-20 µM
[8] = tested on: DNA topoisomerase 1/Deoxyribonucleic acid (Homo sapiens); experiment: Induction of TOP1-DNA covalent complex stabilization in human HCT-116 cells at 10 to 20 uM after 4 to 6 hrs by RADAR assay; type: cell-based; conditions: dose 10-20 µM, time 4-6 hrs
[9] = tested on: HCT-116; experiment: Induction of TOP1-DNA covalent complex PARlyation in human HCT-116 cells at 1 uM measured upto 24 hrs by RADAR assay; type: functional, cell-based
[10] = tested on: DNA topoisomerase 1/Deoxyribonucleic acid (Homo sapiens); experiment: Induction of TOP1-DNA covalent complex degradation in human HCT-116 cells at 1 uM by RADAR assay; type: cell-based; conditions: time 2-24 hrs, TDE = time-dependent effect
[11] = tested on: PANC-1; experiment: Cytotoxicity against human PANC-1 cells at less than 10 uM incubated for 7 to 10 days by crystal violet staining based assay; type: functional, cell-based; conditions: time 7-10 day
[12] = tested on: HCT-116; experiment: Cytotoxicity against human HCT-116 cells at less than 10 uM incubated for 7 to 10 days by crystal violet staining based assay; type: functional, cell-based; conditions: time 7-10 day
[13] = tested on: MIA PaCa-2; experiment: Cytotoxicity against human MIA PaCa-2 cells at less than 10 uM incubated for 7 to 10 days by crystal violet staining based assay; type: functional, cell-based; conditions: time 7-10 day
[14] = tested on: Calf thymus DNA; experiment: Binding affinity to calf thymus pUC19 DNA assessed as intercalating activity by measuring conformational change in DNA at 50 to 100 uM incubated for 30 mins by EtBr staining based agarose gel electrophoresis; type: nucleic-acid assay; conditions: Bos taurus, dose 50-100 µM
[15] = tested on: HCT-116; experiment: Induction of PARylation in human HCT-116 cells at 20 uM incubated for 2 to 8 hrs by Western blotting analysis; type: functional, cell-based; conditions: time 2-8 hrs

O=C1c2cccc3cccc(c23)C(=O)N1CCSc1nnc(Cn2nc(Cc3ccccc3)c3ccccc3c2=O)o1
IC50 [1]: > 25 µM | IC50 [2]: > 25 µM | Activity [3]: Active | Activity [4]: Active | IC50 [5]: > 25 µM | Activity [6]: Active

CC[C@@]1(O)C(=O)OCc2c1cc1n(c2=O)Cc2cc3ccccc3nc2-1
Activity [7]: Active | Activity [8]: inactive | Activity [9]: Active | Activity [10]: Tde

O=C1c2cccc3cccc(c23)C(=O)N1CCSc1nnc(CCn2nc(Cc3ccc(F)cc3)c3ccccc3c2=O)o1
Activity [11]: Active | Activity [12]: Active | IC50 [1]: 13 µM | IC50 [2]: 11 µM | Activity [13]: Active | IC50 [5]: 12.5 µM

COc1ccc(Cc2nn(CCc3nnc(SCCN4C(=O)c5cccc6cccc(c56)C4=O)o3)c(=O)c3ccccc23)cc1
IC50 [1]: > 25 µM | IC50 [2]: > 25 µM | Activity [3]: Active | Activity [4]: Active | IC50 [5]: > 25 µM | Activity [6]: Active

COc1cccc2c1C(=O)c1c(O)c3c(c(O)c1C2=O)C[C@@](O)(C(=O)CO)C[C@@H]3O[C@H]1C[C@H](N)[C@H](O)[C@H](C)O1
Activity [14]: Active

O=C(c1cc(Cc2n[nH]c(=O)c3ccccc23)ccc1F)N1CCN(C(=O)C2CC2)CC1 [OLAPARIB]
Activity [15]: inactive | IC50 [1]: 7 µM | IC50 [2]: 8 µM | IC50 [5]: 9 µM

COc1ccc(Cc2nn(Cc3nnc(SCCN4C(=O)c5cccc6cccc(c56)C4=O)o3)c(=O)c3ccccc23)cc1
Activity [11]: Active | Activity [12]: Active | IC50 [1]: 13 µM | IC50 [2]: 14 µM | Activity [13]: Active | IC50 [5]: 13.5 µM

O=C1c2cccc3cccc(c23)C(=O)N1CCCc1nnc(CCn2nc(Cc3ccc(F)cc3)c3ccccc3c2=O)o1
IC50 [1]: > 25 µM | IC50 [2]: > 25 µM | Activity [3]: Active | Activity [4]: Active | IC50 [5]: > 25 µM | Activity [6]: Active

O=C1NC(=O)c2cccc3cccc1c23
IC50 [1]: 20 µM | IC50 [2]: 18 µM | IC50 [5]: 15 µM

O=C1c2cccc3cccc(c23)C(=O)N1CCSc1nnc(CCCn2nc(Cc3ccccc3)c3ccccc3c2=O)o1
IC50 [1]: > 25 µM | IC50 [2]: > 25 µM | Activity [3]: Active | Activity [4]: Active | IC50 [5]: > 25 µM | Activity [6]: Active

O=C1c2cccc3cccc(c23)C(=O)N1CCSc1nnc(CCn2nc(Cc3ccccc3)c3ccccc3c2=O)o1
IC50 [1]: > 25 µM | IC50 [2]: > 25 µM | IC50 [5]: > 25 µM

CN(C)c1ccc2cc3ccc(N(C)C)cc3nc2c1
Activity [14]: Active

COc1ccc(Cc2nn(CCCc3nnc(SCCN4C(=O)c5cccc6cccc(c56)C4=O)o3)c(=O)c3ccccc23)cc1
IC50 [1]: > 25 µM | IC50 [2]: > 25 µM | Activity [3]: Active | Activity [4]: Active | IC50 [5]: > 25 µM | Activity [6]: Active

O=C1c2cccc3cccc(c23)C(=O)N1CCSc1nnc(CCCn2nc(Cc3ccc(F)cc3)c3ccccc3c2=O)o1
IC50 [1]: > 25 µM | IC50 [2]: > 25 µM | Activity [3]: Active | Activity [4]: Active | IC50 [5]: > 25 µM | Activity [6]: Active

O=C1c2cccc3cccc(c23)C(=O)N1CCCc1nnc(Cn2nc(Cc3ccc(F)cc3)c3ccccc3c2=O)o1
IC50 [1]: > 25 µM | IC50 [2]: > 25 µM | Activity [3]: Active | Activity [4]: Active | IC50 [5]: > 25 µM | Activity [6]: Active
